For ten molecules, inhibition results are on record in patent US6858638B2, “Substituted indazoles, compositions containing them, method of production and use” (Aventis Pharma S.A., priority 2002, dated 2005).

One assay addresses T1, human FAK (Homo sapiens, UniProt Q05397).
T1 construct: The complete cDNA of human FAK; made in house; host or cells: baculovirus expression system (vector pFastBac HTc)
Nature of the assay: FAK autophosphorylation inhibition, time resolved fluorescence (HTRF) assay. It is filed as biochemical. Conditions: for inhibition at 30 µM: 30 μM (values marked *), read-out: FAK % inhib at 30* μM; for inhibition at 10 µM: 10 μM (values without asterisk), read-out: FAK % inhib at 10 μM. On the procedure:
The inhibitory activity of the compounds on FAK is determined by measuring the inhibition of the autophosphorylation of the enzyme using a time resolved fluorescence (HTRF) assay.
The complete cDNA of human FAK, the N-terminal end of which was labeled with histidine, was cloned into a baculovirus expression vector pFastBac HTc. The protein was expressed and purified to approximately 70% homogeneity.
The kinase activity is determined by incubating the enzyme (6.6 μg/ml) with various concentrations of test compound in a 50 mM Hepes buffer, pH=7.2, containing 10 mM MgCl2, 100 μM Na3VO4 and 15 μM d'ATP for 1 hour at 37° C. The enzyme reaction is stopped by adding Hepes buffer, pH=7.0, containing […], 133 mM EDTA and 0.1% BSA, and the labeling is carried out, over 1 to 2 hours at ambient temperature, by adding to this buffer an anti-Histidine antibody labeled with XL665 and a monoclonal antibody phosphospecific for tyrosine, conjugated to europium cryptate (Eu-K). The characteristics of the two fluorophores are available in G. Mathis et al., Anticancer Research, 1997, 17, pages 3011-3014. The transfer of energy from the excited europium cryptate to the XL665 acceptor is proportional to the degree of autophosphorylation of FAK. The long-lived signal specific for XL-665 is measured in a Packard Discovery plate counter. All the assays are carried out in duplicate and the mean of the two assays is calculated. The inhibition of the FAK autophosphorylation activity with compounds of the invention is expressed as percentage inhibition compared to a control whose activity is measured in the absence of test compound. The [signal at 665 nm/signal at 620 nm] ratio is used for the calculation of the % inhibition.
(TR-FRET usually uses a lanthanide donor and a delayed reading to cut background.)

Another assay concerns the target T2, human KDR enzyme (Homo sapiens, UniProt P35968).
T2 construct: The cytoplasmic domain of the human KDR enzyme; GST; made in house; host or cells: SF21 insect cells (baculovirus)
Nature of the assay: KDR substrate (PLCγ) phosphorylation, scintillation assay. It is filed as biochemical. Conditions: 10 μM; read-out: KDR % inhib at 10 μM. The procedure: The inhibitory effect of the compounds is determined in an assay of substrate phosphorylation by the KDR enzyme in vitro using a scintillation technique (96-well plate, NEN).
The cytoplasmic domain of the human KDR enzyme was cloned in the form of a GST fusion into the baculovirus expression vector pFastBac. The protein was expressed in SF21 cells and purified to approximately 60% homogeneity.
The KDR kinase activity is measured in 20 mM MOPS, 10 mM MgCl2, 10 mM MnCl2, 1 mM DTT, 2.5 mM EGTA, 10 mM β-glycerophosphate, pH=7.2, in the presence of 10 mM MgCl2, 100 μM Na3VO4, 1 mM NaF. 10 μl of the compound are added to 70 μl of kinase buffer containing 100 ng of KDR enzyme at 4° C. The reaction is triggered by adding 20 μl of solution containing 2 μg of substrate (SH2-SH3 fragment of PLCγ expressed in the form of a GST fusion protein), 2 μCi γ^33P[ATP] and 2 μM cold ATP. After incubation for 1 hour at 37° C., the reaction is stopped by adding 1 volume (100 μl) of 200 mM EDTA. The incubation buffer is removed and the wells are washed three times with 300 μl of PBS. The radioactivity is measured in each well using Top Count NXT radioactivity counter (Packard).
The background noise is determined by measuring the radioactivity in four different wells containing the radioactive ATP and the substrate alone.
A control for total activity is measured in four different wells containing all the reagents (γ^33P-[ATP], KDR and PLCγ substrate) but in the absence of compound.
The inhibition of the KDR activity with the compound of the invention is expressed as percentage inhibition of the control activity determined in the absence of compound.
The compound SU5614 (Calbiochem) (1 μM) is included in each plate as an inhibition control.

T2 sequence (P35968 786-1356 limits assumed): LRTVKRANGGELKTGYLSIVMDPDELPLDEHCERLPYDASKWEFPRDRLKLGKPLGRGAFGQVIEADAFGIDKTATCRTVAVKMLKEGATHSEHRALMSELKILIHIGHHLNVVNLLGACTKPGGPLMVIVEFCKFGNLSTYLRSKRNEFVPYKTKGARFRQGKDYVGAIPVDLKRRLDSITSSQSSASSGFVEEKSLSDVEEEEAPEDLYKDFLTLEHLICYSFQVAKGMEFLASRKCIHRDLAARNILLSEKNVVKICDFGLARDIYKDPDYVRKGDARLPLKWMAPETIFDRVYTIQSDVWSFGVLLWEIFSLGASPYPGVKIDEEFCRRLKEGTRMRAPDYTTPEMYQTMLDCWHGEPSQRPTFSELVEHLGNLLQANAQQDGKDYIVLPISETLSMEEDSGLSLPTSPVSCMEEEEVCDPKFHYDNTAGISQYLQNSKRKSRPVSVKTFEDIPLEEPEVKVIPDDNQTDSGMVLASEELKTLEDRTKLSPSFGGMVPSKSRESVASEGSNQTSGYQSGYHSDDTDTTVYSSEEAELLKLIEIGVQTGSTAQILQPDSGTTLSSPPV
T1 sequence (Q05397 whole entry): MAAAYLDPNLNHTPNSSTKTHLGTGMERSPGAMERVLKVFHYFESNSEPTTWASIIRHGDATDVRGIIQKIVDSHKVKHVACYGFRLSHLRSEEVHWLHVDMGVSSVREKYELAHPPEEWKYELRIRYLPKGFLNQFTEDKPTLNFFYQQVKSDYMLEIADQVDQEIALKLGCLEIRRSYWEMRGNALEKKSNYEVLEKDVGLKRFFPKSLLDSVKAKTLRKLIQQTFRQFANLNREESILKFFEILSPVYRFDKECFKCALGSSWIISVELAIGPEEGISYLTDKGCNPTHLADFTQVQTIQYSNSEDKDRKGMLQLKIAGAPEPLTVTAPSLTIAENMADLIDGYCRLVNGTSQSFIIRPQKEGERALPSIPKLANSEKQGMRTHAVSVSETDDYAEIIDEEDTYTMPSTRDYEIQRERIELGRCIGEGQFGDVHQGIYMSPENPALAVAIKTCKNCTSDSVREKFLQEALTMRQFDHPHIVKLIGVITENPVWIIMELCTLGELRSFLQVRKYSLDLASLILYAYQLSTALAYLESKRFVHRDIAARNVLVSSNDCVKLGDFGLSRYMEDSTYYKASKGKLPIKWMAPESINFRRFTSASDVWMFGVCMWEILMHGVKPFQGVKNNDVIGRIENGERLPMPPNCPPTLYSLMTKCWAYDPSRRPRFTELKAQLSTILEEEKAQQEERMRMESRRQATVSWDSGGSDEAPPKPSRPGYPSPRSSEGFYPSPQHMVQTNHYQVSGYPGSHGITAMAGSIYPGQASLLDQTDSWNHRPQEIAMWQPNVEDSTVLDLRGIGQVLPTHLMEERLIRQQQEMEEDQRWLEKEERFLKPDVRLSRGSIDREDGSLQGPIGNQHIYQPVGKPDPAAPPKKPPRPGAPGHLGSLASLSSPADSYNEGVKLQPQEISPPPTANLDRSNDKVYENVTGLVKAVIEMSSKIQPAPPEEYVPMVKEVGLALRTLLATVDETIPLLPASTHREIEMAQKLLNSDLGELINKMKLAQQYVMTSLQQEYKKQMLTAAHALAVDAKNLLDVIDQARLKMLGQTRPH

On to `O=S(=O)(Nc1ccc2[nH]nc(Cl)c2c1)c1ccc(Cl)c(Cl)c1` [Example 2, N-(3-Chloro-1H-indazol-5-yl)-3,4-dichlorobenzenesulfonamide], for which the inhibition at 30 µM at human FAK worked out at 75%. Also, the inhibition at 10 µM on human KDR enzyme was 43%.
Turning to `CS(=O)(=O)c1ccccc1S(=O)(=O)Nc1ccc2[nH]nc(C#N)c2c1` [Example 5, N-(3-Cyano-1H-indazol-5-yl)-2-methylsulfonylbenzenesulfonamide], the inhibition at 30 µM on human FAK came to 80%. For the same molecule, the inhibition at 10 µM at human KDR enzyme came out at 26%.
`O=S(=O)(Nc1cccc(F)c1)c1ccc2[nH]ncc2c1` [Example 11, N-(3-Fluorophenyl)-(1H-indazol-5-yl)sulfonamide]: the inhibition at 10 µM on human FAK amounted to 59%; on human KDR enzyme, 7%.
On to `O=S(=O)(Nc1ccc2[nH]nc(I)c2c1)c1cccc(F)c1` [Example 12, 3-Fluoro-N-(3-iodo-1H-indazol-5-yl)benzenesulfonamide], for which the inhibition at 30 µM on human FAK turned out to be 92%. The inhibition at 10 µM at human KDR enzyme is 39%.
With `O=S(=O)(Nc1ccc2[nH]ncc2c1)c1cccc(F)c1` [Example 15, 3-Fluoro-N-(1H-indazol-5-yl)benzenesulfonamide], on human FAK, the inhibition at 30 µM was 67%. Also, at human KDR enzyme, the inhibition at 10 µM was found to be 13%.
In the case of `O=S(=O)(Nc1ccc2[nH]nc(O)c2c1)c1cccc(F)c1` [Example 16, 3-Fluoro-N-(3-hydroxy-1H-indazol-5-yl)benzenesulfonamide], the inhibition at 10 µM on human FAK was found to be 58%; at human KDR enzyme, 8%.
For `O=S(=O)(Oc1ccc2[nH]ncc2c1)c1cccc(F)c1` [Example 17, 1H-Indazol-5-yl 3-fluorobenzenesulfonate], the inhibition at 10 µM was 59% at human FAK and 46% at human KDR enzyme.
In the same order, the values of `CNC(=O)c1n[nH]c2ccc(NS(=O)(=O)c3cccc(F)c3)cc12` [Example 19, N-Methyl-5-(3-fluorobenzenesulfonylamino)-1H-indazole-3-carboxamide] are 85% and 73%.
`CS(=O)(=O)c1ccccc1S(=O)(=O)Nc1ccc2[nH]nc(C(N)=O)c2c1` [Example 20]: the figures for the inhibition at 10 µM on human FAK and on human KDR enzyme were 76% and 28%, respectively.
Regarding `NC(=O)c1n[nH]c2ccc(NS(=O)(=O)c3cccc(F)c3)cc12` [Example 21], the inhibition at 30 µM on human FAK was 76%. Besides, the inhibition at 10 µM on human KDR enzyme came out at 80%.
